Assay results as given in patent US9618513B2, “Compositions and methods for detecting and treating colorectal cancer” (The Regents of the University of Michigan, priority 2014, dated 2017).

Tests used:
SUZ12, Sox2 = assay: SUZ12 and Sox2 expression after DOT1L/H3K79me2 inhibitor (FIG. 21A); type: cell-based, human; conditions: 10 uM
DOT1L, AFF4, MLLT10 = assay: DOT1L complex gene expression by real-time PCR; type: cell-based, human; conditions: DLD-1 and primary colon cancer cells, IL-22 12 hours
Protocol: (A) IL-22 induces H3K79me2 in colon cancer cells. Colon cancer cells were treated with IL-22 for 48 hours. Total histone modifications were analyzed by western blot. (B, C) DOT1L inhibitor, EPZ004777 suppresses colon cancer sphere formation induced by IL-22. Colon cancer sphere assay was performed in the presence of IL-22 and EPZ004777. Sphere numbers were recorded. DLD-1 cells (B), primary colon cancer cells (C). (n=5, P<0.05). (D, E) IL-22 stimulates DOT1L complex gene expression. Colon cancer cells were cultured for 12 hours with IL-22. DOT1L complex gene expression was quantified by real-time PCR. DLD-1 cells (D), primary colon cancer cells (E). (n=3, P<0.05). (F) DOT1L knock down results in reduced colon cancer sphere formation induced by IL-22. Colon cancer sphere assay was performed with colon cancer cells expressing sh-DOT1L or vector in the presence of IL-22. Sphere numbers were recorded. (n=5, P<0.05). (G-I), IL-22 causes higher occupancy of H3K79me2 on core stem cell gene promoters. H3K79me2-ChIP assay was performed in DLD-1 colon cancer cells cultured with IL-22. One of 3 experiments is shown. […]
The mRNA was quantified by real-time RT-PCR. […] SYBR Green Master Mix was used to detect fluorescence. Relative expression was calculated according to the Ct value with normalization to GAPDH.

Compound	SUZ12 expression (SUZ12, Sox2)	Sox2 expression (SUZ12, Sox2)	expression of DOT1L, AFF4 (DOT1L, AFF4, MLLT10)
CC(C)N(CCCNC(=O)Nc1ccc(C(C)(C)C)cc1)C[C@H]1O[C@@H](n2ccc3c(N)ncnc32)[C@H](O)[C@@H]1O [EPZ004777]	no effect	reduce	–
IL-22: recombinant IL-22 (R&D systems), cytokine interleukin-22	–	–	consistently promoted
